# Marks after values point to notes of the source that are not given here.
# What was measured:
# human 5-HT1A receptor = target: T1, human 5-HT1A receptor (Homo sapiens, UniProt P08908); test: 5-HT1A radioligand binding assay; details: [3H]-8-OH-DPAT 1 nM; membranes from CHO-K1 cells with human 5-HT1A receptor
# T1 construct: purchased PerkinElmer; host or cells: CHO-K1 cells, stably transfected
# T1 sequence (P08908 1-422): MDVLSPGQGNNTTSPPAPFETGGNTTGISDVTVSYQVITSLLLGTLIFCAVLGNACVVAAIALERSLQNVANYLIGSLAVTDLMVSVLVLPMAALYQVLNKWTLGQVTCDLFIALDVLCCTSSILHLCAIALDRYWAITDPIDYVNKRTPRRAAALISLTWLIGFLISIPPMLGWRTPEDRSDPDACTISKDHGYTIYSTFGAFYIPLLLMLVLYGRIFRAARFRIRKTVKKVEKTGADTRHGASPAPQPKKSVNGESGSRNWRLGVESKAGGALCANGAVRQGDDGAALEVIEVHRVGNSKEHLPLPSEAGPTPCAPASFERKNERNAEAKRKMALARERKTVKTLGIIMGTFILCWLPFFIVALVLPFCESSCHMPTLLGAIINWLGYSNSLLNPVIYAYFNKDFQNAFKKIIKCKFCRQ
# Description: Radioligand binding was performed using membranes from CHO-K1 cells stably transfected with the human 5-HT1A receptor (PerkinElmer, Fremont, CA, USA). All assays were carried out in duplicate. Then, 50 µL working solution of the tested compounds, 50 µL [^3H]-8-OH-DPAT (final concentration 1 nM) and 150 µL diluted membranes (20 µg protein per well) prepared in assay buffer (50 mM Tris, pH 7.4, 10 mM MgSO4, 0.5 mM EDTA, 0.1% ascorbic acid) were transferred to a polypropylene 96-well microplate using 96-wells pipetting station Rainin Liquidator (MettlerToledo, Columbus, OH, USA). […] The reaction was terminated by rapid filtration through GF/B filter mate, presoaked with 0.5% polyethyleneimine for 30 min. Ten rapid washes with 200 µL 50 mM Tris buffer (4 °C, pH 7.4) were performed using an automated harvester system—Harvester-96 MACH III FM (Tomtec, Hamden, CT, USA). […] Data were fitted to a one-site curve-fitting equation with Prism 6 (GraphPad Software, San Diego, CA, USA) and Ki values were estimated from the Cheng–Prusoff equation.
# SERT protein = target: T2, SERT protein (Rattus norvegicus, UniProt P31652); test: SERT radioligand binding assay; details: [3H]-citalopram 1.0 nM; rat cortex tissue
# T2 construct: from tissue; host or cells: rat cortex
# Description: Radioligand binding was performed using rat cortex tissue. All assays were carried out in duplicate. First, 50 µL working solution of the tested compounds, 50 µL [^3H]-citalopram (final concentration 1.0 nM) and 150 µL tissue suspension, prepared in assay buffer (50 mM Tris. pH 7.7; 150 mM NaCl; 5 mM KCl), were transferred to a polypropylene 96-well microplate using 96-wells pipetting station Rainin Liquidator (MettlerToledo). […] The reaction was terminated by rapid filtration through GF/B filter mate presoaked with 0.3% polyethyleneimine for 30 min. Ten rapid washes with 200 µL 50 mM Tris buffer (4 °C, pH 7.7) were performed using an automated harvester system—Harvester-96 MACH III FM (Tomtec). […] Data were fitted to a one-site curve-fitting equation with Prism 6 (GraphPad Software) and Ki values were estimated from the Cheng–Prusoff equation.
# 5-HT1A receptor = target: T3, 5-HT1A receptor (Mus musculus, UniProt Q64264); test: Body temperature in mice (induced hypothermia); assay type: in vivo, CD-1 mice; details: mice, 5 mg/kg sc
# T3 construct: from tissue; host or cells: whole animal, male CD-1 mice
# T3 sequence (Q64264 1-421): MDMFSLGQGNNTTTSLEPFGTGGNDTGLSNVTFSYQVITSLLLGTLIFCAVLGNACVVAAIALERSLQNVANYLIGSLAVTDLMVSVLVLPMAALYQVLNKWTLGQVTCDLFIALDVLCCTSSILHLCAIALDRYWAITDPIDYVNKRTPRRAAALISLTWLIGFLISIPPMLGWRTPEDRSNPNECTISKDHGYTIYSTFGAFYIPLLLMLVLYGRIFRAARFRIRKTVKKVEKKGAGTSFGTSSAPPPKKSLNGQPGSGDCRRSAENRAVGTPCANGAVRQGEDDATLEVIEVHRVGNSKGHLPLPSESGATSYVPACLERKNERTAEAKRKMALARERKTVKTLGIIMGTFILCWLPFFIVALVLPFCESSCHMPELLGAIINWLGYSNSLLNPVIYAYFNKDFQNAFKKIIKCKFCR
# Description: The experiments were performed on male CD-1 mice (23–40 g). The animals were kept at room temperature (21 ± 2 °C) on a natural day-night cycle (March–October) and housed under standard laboratory conditions. They had free access to food and tap water before the experiment. Each experimental group consisted of 6–8 animals/dose. All the animals were used only once. 8-Hydroxy-2-(di-n-propylamino)tetralin hydro-bromide (8-OH-DPAT, Research Biochemical Inc.) was used as aqueous solution. […] Vehicle group was administered as 10% aqueous solution of dimethyl sulphoxide (DMSO). 8-OH-DPAT was injected subcutaneously (sc); 6a and 7g were given intraperitoneally (ip) in a volume of 10 mL/kg/mice. The obtained data were analyzed by Dunnett’s test (one drug administration) or by the Newman–Keuls test (two drugs administrations). Forced swim test: the obtained data was evaluated by one-way analysis of variance (ANOVA) followed by the Dunnett’s multiple comparisons test: p < 0.05 was considered significant.
# The results were expressed as a change in body temperature (Δt) with respect to the basal body temperature, as measured at the beginning of the experiment.
# T2 sequence (P31652 whole entry): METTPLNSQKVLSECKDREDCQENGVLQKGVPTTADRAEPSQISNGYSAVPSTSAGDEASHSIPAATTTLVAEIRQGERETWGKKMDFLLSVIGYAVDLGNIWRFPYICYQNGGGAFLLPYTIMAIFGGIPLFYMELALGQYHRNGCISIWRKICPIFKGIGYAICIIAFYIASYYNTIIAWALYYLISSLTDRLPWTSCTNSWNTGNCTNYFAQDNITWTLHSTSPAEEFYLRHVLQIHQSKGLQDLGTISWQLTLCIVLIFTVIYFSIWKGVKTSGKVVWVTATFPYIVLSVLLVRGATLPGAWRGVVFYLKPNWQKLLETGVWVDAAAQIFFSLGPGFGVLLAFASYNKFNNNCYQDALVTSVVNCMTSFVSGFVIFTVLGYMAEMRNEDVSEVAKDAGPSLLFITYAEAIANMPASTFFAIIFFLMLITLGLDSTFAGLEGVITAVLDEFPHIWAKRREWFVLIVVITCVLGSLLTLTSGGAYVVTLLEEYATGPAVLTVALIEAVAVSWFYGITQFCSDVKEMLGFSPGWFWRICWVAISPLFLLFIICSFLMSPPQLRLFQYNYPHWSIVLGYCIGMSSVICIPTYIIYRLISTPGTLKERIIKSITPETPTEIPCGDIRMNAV
Structure (SMILES),Ki (human 5-HT1A receptor) [µM],Ki (SERT protein) [µM],melting point [°C],"Δt ± SEM, body temperature (5-HT1A receptor; 30 min)","Δt ± SEM, body temperature (5-HT1A receptor; 60 min)","Δt ± SEM, body temperature (5-HT1A receptor; 90 min) [°C]","Δt ± SEM, body temperature (5-HT1A receptor; 120 min) [°C]"
"O=c1c(-c2ccccc2)c2n(c(=O)n1CCCCN1CCC(c3noc4cc(F)ccc34)CC1)CCCC2 [Compound 7a, 4-Phenyl-2-{4-[4-(6-fluoro-1,2-benzoxazol-3-yl)-1-piperidyl]butyl}-5,6,7,8-tetrahydro-pyrido[1,2-c]pyrimidine-1,3-dione]",0.027 ± 0.002,0.52 ± 0.0588,110 to 113,,,,
"Cc1ccccc1-c1c2n(c(=O)n(CCCCN3CCC(c4noc5cc(F)ccc45)CC3)c1=O)CCCC2 [Compound 7b, 4-(2-Methylphenyl)-2-{4-[4-(6-fluoro-1,2-benzoxazol)-1-piperidyl]butyl}-5,6,7,8-tetrahydro-pyrido[1,2-c]pyrimidine-1,3-dione]",0.035 ± 0.0035,> 1,,,,,
"O=c1c(-c2ccccc2F)c2ccccn2c(=O)n1CCCCN1CCC(c2noc3cc(F)ccc23)CC1 [Compound 6e, 4-(2-Fluorophenyl)-2-{4-[4-(6-fluoro-1,2-benzoxazol)-1-piperidyl]butyl}-pyrido[1,2-c]pyrimidine-1,3-dione]",0.015 ± 0.0006,> 1,58 to 62,,,,
"Cc1ccc(-c2c(=O)n(CCCCN3CCC(c4noc5cc(F)ccc45)CC3)c(=O)n3ccccc23)cc1 [Compound 6f, 4-(4-Methylphenyl)-2-{4-[4-(6-fluoro-1,2-benzoxazol)-1-piperidyl]butyl}-pyrido[1,2-c]pyrimidine-1,3-dione]",0.074 ± 0.004,0.772 ± 0.036,158 to 159,,,,
"O=c1c(-c2ccc(F)cc2)c2ccccn2c(=O)n1CCCCN1CCC(c2noc3cc(F)ccc23)CC1 [Compound 6i, 4-(4-Fluorophenyl)-2-{4-[4-(6-fluoro-1,2-benzoxazol)-1-piperidyl]butyl}-pyrido[1,2-c]pyrimidine-1,3-dione]",0.017 ± 0.002,0.342 ± 0.0288,102 to 107,,,,
"Cc1ccc(-c2c3n(c(=O)n(CCCCN4CCC(c5noc6cc(F)ccc56)CC4)c2=O)CCCC3)cc1 [Compound 7f, 4-(4-Methylphenyl)-2-{4-[4-(6-fluoro-1,2-benzoxazol)-1-piperidyl]butyl}-5,6,7,8-tetrahydro-pyrido[1,2-c]pyrimidine-1,3-dione]",0.052 ± 0.0025,1.77 ± 0.18,107 to 110,,,,
"CCCN(CCC)C1CCc2cccc(O)c2C1 (stereo not drawn) [Compound 8-OH-DPAT, 8-Hydroxy-2-(di-n-propylamino)tetralin hydro-bromide, reference compound]",,,,−1.7 ± 0.2 ^b °C,−1.1 ± 0.2 ^b °C,−0.1 ± 0.1,0.3 ± 0.3
"O=c1c(-c2ccc(Cl)cc2)c2ccccn2c(=O)n1CCCCN1CCC(c2noc3cc(F)ccc23)CC1 [Compound 6h, 4-(4-Chlorophenyl)-2-{4-[4-(6-fluoro-1,2-benzoxazol)-1-piperidyl]butyl}-pyrido[1,2-c]pyrimidine-1,3-dione]",0.021 ± 0.0015,0.31 ± 0.001,152 to 155,,,,
"O=c1c(-c2ccccc2Cl)c2n(c(=O)n1CCCCN1CCC(c3noc4cc(F)ccc34)CC1)CCCC2 [Compound 7d, 4-(2-Chlorophenyl)-2-{4-[4-(6-fluoro-1,2-benzoxazol)-1-piperidyl]butyl}-5,6,7,8-tetrahydro-pyrido[1,2-c]pyrimidine-1,3-dione]",0.071 ± 0.0069,0.31 ± 0.0345,,,,,
"COc1ccccc1-c1c2n(c(=O)n(CCCCN3CCC(c4noc5cc(F)ccc45)CC3)c1=O)CCCC2 [Compound 7c, 4-(2-Methoxphenyl)-2-{4-[4-(6-fluoro-1,2-benzoxazol)-1-piperidyl]butyl}-5,6,7,8-tetrahydro-pyrido[1,2-c]pyrimidine-1,3-dione]",0.062 ± 0.006,0.878 ± 0.088,,,,,
"COc1ccccc1-c1c(=O)n(CCCCN2CCC(c3noc4cc(F)ccc34)CC2)c(=O)n2ccccc12 [Compound 6c, 4-(2-Methoxphenyl)-2-{4-[4-(6-fluoro-1,2-benzoxazol)-1-piperidyl]butyl}-pyrido[1,2-c]pyrimidine-1,3-dione]",0.007 ± 0.001,> 5,65 to 70,,,,
"COc1ccc(-c2c(=O)n(CCCCN3CCC(c4noc5cc(F)ccc45)CC3)c(=O)n3ccccc23)cc1 [Compound 6g, 4-(4-Methoxyphenyl)-2-{4-[4-(6-fluoro-1,2-benzoxazol)-1-piperidyl]butyl}-pyrido[1,2-c]pyrimidine-1,3-dione]",0.01 ± 0.0011,0.73 ± 0.079,163 to 166,,,,
"O=c1c(-c2ccccc2F)c2n(c(=O)n1CCCCN1CCC(c3noc4cc(F)ccc34)CC1)CCCC2 [Compound 7e, 4-(2-Fluorophenyl)-2-{4-[4-(6-fluoro-1,2-benzoxazol)-1-piperidyl]butyl}-5,6,7,8-tetrahydro-pyrido[1,2-c]pyrimidine-1,3-dione]",0.036 ± 0.0041,> 1,,,,,
"O=c1c(-c2ccc(Cl)cc2)c2n(c(=O)n1CCCCN1CCC(c3noc4cc(F)ccc34)CC1)CCCC2 [Compound 7h, 4-(4-Chlorophenyl)-2-{4-[4-(6-fluoro-1,2-benzoxazol)-1-piperidyl]butyl}-5,6,7,8-tetrahydro-pyrido[1,2-c]pyrimidine-1,3-dione]",0.025 ± 0.003,0.29 ± 0.0227,116 to 120,,,,
"Cc1ccccc1-c1c(=O)n(CCCCN2CCC(c3noc4cc(F)ccc34)CC2)c(=O)n2ccccc12 [Compound 6b, 4-(2-Methylphenyl)-2-{4-[4-(6-fluoro-1,2-benzoxazol)-1-piperidyl]butyl}-pyrido[1,2-c]pyrimidine-1,3-dione]",0.03 ± 0.0035,> 5,120 to 122,,,,

# Source: PMC7956643, “Synthesis of Novel Pyrido[1,2-c]pyrimidine Derivatives with 6-Fluoro-3-(4-piperidynyl)-1,2-benzisoxazole Moiety as Potential SSRI and 5-HT1A Receptor Ligands” (International Journal of Molecular Sciences, 2021)
